Source: the OPERA property sets (Mansouri et al. 2018)
≈ marks a conversion by molar mass, not a printed value.

conditions: not given

Row | SMILES | logP | solubility | log10 OH rate constant (cm³/molecule/s)
1 | COc1ccc(C=[N+]([O-])C(C)(C)C)cc1 | 1.21 | – | –
2 | CCCCCCCCCCCCOC(=O)c1ccc(N)cc1 | – | 1.58e-05 mM (≈ 0.00484 µg/mL) | –
3 | Cc1ccc2c(ccc3ccccc32)c1 | 4.86 | – | –
4 | O=[N+]([O-])c1cc(C(F)F)c(Nc2ncc(C(F)(F)F)cc2Cl)c([N+](=O)[O-])c1 | 3.52 | – | –
5 | CCOC1OC2OC3(C)CCC4C(COC5OC(C(=O)O)C(O)C(O)C5O)CCC(C1C)C24OO3 (centres undefined) | 1.05 | – | –
6 | CCn1c2ccccc2c2ccccc21 | 4.49 | – | –
7 | Cc1ncc([N+](=O)[O-])n1C | 0.31 | – | –
8 | CC(C)c1ccc(Br)c(C(C)C)c1NC(=O)CN(CC(=O)O)CC(=O)O | 0.2 | – | –
9 | CCOC1OC2OC3(C)CCC4C(CO)CCC(C1C)C24OO3 (centres undefined) | 2.08 | – | –
10 | CCCCCCC(C)O (centres undefined) | 2.9 | – | –
11 | Nc1ccc2[nH]ncc2c1 | 0.65 | – | –
12 | Cc1nc(NCCCO)c(C#N)cc1-c1ccccc1 | 2.72 | – | –
13 | O=[N+]([O-])c1cc(C2CCCCC2)c(O)c([N+](=O)[O-])c1 | 4.12 | – | –
14 | CC(C)n1ccc(=O)c(O)c1 | -0.02 | – | –
15 | CCCCCCOCCO | 1.86 | – | –
16 | CC(=O)Nc1nc(=O)c2ncn(COCCOC(C)=O)c2[nH]1 | -0.85 | – | –
17 | N[C@@H](Cc1ccc(O)c(O)c1)C(=O)OC1CCCCC1 | 1.79 | – | –
18 | N#Cc1cccc(N=C=S)c1 | 3.13 | – | –
19 | CCCCNC(=O)n1cc(F)c(=O)[nH]c1=O | – | 3.58 mM (≈ 820 µg/mL) | –
20 | Clc1cc2c(cc1Cl)-c1cc(Cl)c(Cl)cc1-2 | 6.14 | – | –
21 | CCN=c1nc(Cl)[nH]c(=NC(C)CC)[nH]1 (centres undefined) | 2.61 | – | –
22 | NS(=O)(=O)c1nn2c(=Nc3ccc(F)cc3)snc2s1 | 2.81 | – | –
23 | C[C@H](CCC(=O)NCC(=O)O)[C@H]1CC[C@H]2[C@@H]3[C@H](O)[C@H](O)[C@@H]4C[C@H](O)CC[C@]4(C)[C@H]3CC[C@]12C | 1.9 | – | –

Row | SMILES | logP | solubility | log10 OH rate constant (cm³/molecule/s)
24 | Clc1cc(Cl)cc(O[Si]23OCCN(CCO2)CCO3)c1 | 1.22 | – | –
25 | CC1=NS(=O)(=O)c2cnccc2N1 | -0.41 | – | –
26 | CC(CCl)OC(C)CCl (centres undefined) | 2.48 | – | –
27 | S=C=Nc1ccc(Cl)cc1 | 3.91 | – | –
28 | Cc1ccc(-c2ccccc2)cc1 | 4.63 | – | –
29 | Cc1cn([C@H]2C[C@H](N=[N+]=[N-])[C@@H](CO)O2)c(=O)[nH]c1=S | 1.07 | – | –
30 | Nc1c(OC2C=CC(N3CCCCCC3=O)=CC2)cc(O)c2c1C(=O)c1ccccc1C2=O (centres undefined) | 5.3 | – | –
31 | CC(C)C1(C)N=C(c2nc3ccccc3cc2C(=O)O)NC1=O (centres undefined) | 1.86 | – | –
32 | COc1cc2nc(N3CCN(C(=O)C4COc5ccccc5O4)CC3)nc(N)c2cc1OC (centres undefined) | 3.3 | – | –
33 | CCC(C)O (centres undefined) | – | – | -11
34 | Clc1ccc2c(ccc3ccccc32)c1 | 5.16 | – | –
35 | COC1=CC(=O)C=CC1=O | -0.06 | – | –
36 | CNCCc1ccccn1 | 0.68 | – | –
37 | O=C1CCC2CCC(=O)N12 | -1.11 | – | –
38 | Cc1ccc(C=[N+]([O-])C(C)(C)C)cc1 | 1.74 | – | –
39 | Cc1ccc2cc3ccccc3cc2c1 | 5 | – | –
40 | Clc1cccc2c(Cl)cccc12 | 4.67 | 0.00192 mM (≈ 0.379 µg/mL) | –
41 | Cc1nc(NCC(C)O)c(C#N)cc1-c1ccccc1 (centres undefined) | 2.72 | – | –
42 | Nc1nc(NC(=O)C(F)(F)C(F)(F)C(F)(F)F)n[nH]1 | 1.54 | – | –
43 | CC(C)N(C(=O)SCC(Cl)=CCl)C(C)C | 4.49 | – | –
44 | C1CCC(C2CO2)CC1 (centres undefined) | 2.43 | – | –
45 | Cc1ccc(C(=O)CS(=O)(=O)c2ccccc2)cc1 | 2.7 | – | –
46 | Cc1cccc2[nH]ccc12 | 2.54 | – | –

Row | SMILES | logP | solubility | log10 OH rate constant (cm³/molecule/s)
47 | CCOC(=O)c1ccccc1C(=O)OCC | 2.42 | – | –
48 | Cc1cn(C2CC(O)C(CO)O2)c(=O)[nH]c1=S (centres undefined) | -0.07 | – | –
49 | Clc1cc(Cl)c(-c2ccc(Cl)c(Cl)c2Cl)cc1Cl | 7.44 | – | –
50 | c1ccc2c(c1)oc1ccccc12 | – | 0.0184 mM (≈ 3.1 µg/mL) | –
51 | CC=O | -0.34 | – | –
52 | O=[N+]([O-])c1ccc(O)cc1C(F)(F)F | – | 24.1 mM (≈ 5000 µg/mL) | –
53 | c1ccc2c(c1)ccc1[nH]c3ccc4ccccc4c3c12 | – | 0.000236 mM (≈ 0.063 µg/mL) | –
54 | Nc1ccc2c(c1)Cc1cc(Br)ccc1-2 | 3.92 | – | –
55 | COC(=O)c1sccc1S(=O)(=O)NC(=O)Nc1nc(C)nc(OC)n1 | 1.56 | – | –
56 | O=C(c1ccccc1)n1ncc2c(=O)[nH]cnc21 | 1.2 | – | –
57 | O=[N+]([O-])c1cc(N(CCO)CCO)ccc1NCCO | 1.7 | – | –
58 | NC(=O)C=Cc1ccc([N+](=O)[O-])o1 | 0.65 | – | –
59 | CCCCOC(=O)C(N)Cc1ccc(O)cc1 (centres undefined) | 1.8 | – | –
60 | CC(C)(C)C1CCC(O)CC1 (centres undefined) | 3.23 | – | –
61 | Nc1ccc2nc(S(N)(=O)=O)sc2c1 | 0.52 | – | –
62 | NS(=O)(=O)c1cc(C2(O)NC(=O)c3ccccc32)ccc1Cl (centres undefined) | 0.85 | – | –
63 | COCCOCCOC | -0.36 | – | –
64 | CCCCOCCOCCOCCCC | 1.92 | – | –
65 | NC(=S)NN=Cc1ccco1 | 1.64 | – | –
66 | COC1=CC(=O)C=C(OC)C1=O | -0.06 | – | –
67 | CCNC(=O)CCC(NS(=O)(=O)c1ccccc1)C(=O)O (centres undefined) | 0.15 | – | –
68 | C=CC(=O)NCCc1cnc[nH]1 | -0.21 | – | –
69 | CCC(=O)CC | – | 558 mM (≈ 48100 µg/mL) | –

Row | SMILES | logP | solubility | log10 OH rate constant (cm³/molecule/s)
70 | CCCCCCCCC1(CC)C(=O)NC(=O)NC1=O | 3.78 | – | –
71 | COCCCNc1nc(NCCCOC)nc(SC)n1 | – | 0.332 mM (≈ 100 µg/mL) | –
72 | COc1ccc(C#N)cc1 | 1.7 | – | –
73 | COc1ccc(C=[N+]([O-])c2ccccc2)cc1 | 1.94 | – | –
74 | O=c1ccc2cc3ccoc3cc2o1 | 1.67 | – | –
75 | COC(=O)c1ccccc1S(=O)(=O)NC(=O)Nc1nc(C)cc(C)n1 | 1.2 | – | –
76 | [O-][N+](=Cc1ccccc1)c1ccccc1 | 1.88 | – | –
77 | CN(C)c1ccc(N=c2snc3sc(S(N)(=O)=O)nn23)cc1 | 2.32 | – | –
78 | O=c1[nH]c(=O)c2[nH]c(=O)[nH]c2[nH]1 | -2.17 | – | –
79 | COC(=O)C1CC(=O)N(C)C1 (centres undefined) | -0.74 | – | –
80 | C=CCNc1ncc(-c2ccncc2)cc1C#N | 2.07 | – | –
81 | COC(=O)n1c(-c2cscn2)nc2ccccc21 | 2.05 | – | –
82 | CC(C)OC(C)C | 1.52 | – | –
83 | COC(=O)[C@@H](N)Cc1ccc(O)c(O)c1 | -0.21 | – | –
84 | CSc1nc(N=[N+]=[N-])nc(NC(C)C)n1 | 3 | – | –
85 | NC(=S)Nc1cccc2ccccc12 | 1.65 | – | –
86 | CNC(=O)NCCn1nc(-c2ccccc2)ccc1=O | 0.39 | – | –
87 | CCc1ccc(C=[N+]([O-])C(C)(C)C)cc1 | 2.19 | – | –
88 | Clc1cccc2ccccc12 | 4 | – | –
89 | Oc1ccc(O)cc1 | – | 654 mM (≈ 72000 µg/mL) | –

same assay, conditions: 20 °C

Row | SMILES | solubility
90 | CCC(CC)C(=O)O | 155 mM (≈ 18000 µg/mL)
91 | CC(C)(C)C1CCC(O)CC1 (centres undefined) | 0.64 mM (≈ 100 µg/mL)
92 | ClCC(Br)CBr (centres undefined) | 4.69 mM (≈ 1110 µg/mL)

same assay, conditions: 22 °C

Row | SMILES | solubility
93 | CCCCC(CC)COC(=O)CCCCC(=O)OCC(CC)CCCC (centres undefined) | 0.0021 mM (≈ 0.78 µg/mL)

same assay, conditions: 23 °C

Row | SMILES | solubility
94 | CCOP(=S)(Oc1ccc([N+](=O)[O-])cc1)c1ccccc1 (centres undefined) | 0.00962 mM (≈ 3.11 µg/mL)
95 | CN(N=O)C(N)=O | 140 mM (≈ 14400 µg/mL)

same assay, conditions: 25 °C

Row | SMILES | solubility
96 | Cc1ccc2c(ccc3ccccc32)c1 | 0.00146 mM (≈ 0.28 µg/mL)
97 | Nc1cc(Cl)cc(C(=O)O)c1Cl | 3.4 mM (≈ 700 µg/mL)
98 | CC(C)(C)NCC(O)COc1cccc2c1C[C@H](O)[C@H](O)C2 (some centres undefined) | 26.9 mM (≈ 8330 µg/mL)
99 | CN(C)C(=O)Nc1ccc(Cl)c(Cl)c1 | 0.18 mM (≈ 42 µg/mL)
100 | CN(C)c1ccc(N=Nc2ccccc2)cc1 | 0.00102 mM (≈ 0.23 µg/mL)
101 | C[C@]12C[C@H](O)[C@H]3[C@@H](CCC4=CC(=O)CC[C@@]43C)[C@@H]1CC[C@@H]2C(=O)CO | 0.574 mM (≈ 199 µg/mL)
102 | Brc1ccc(I)cc1 | 0.0312 mM (≈ 8.82 µg/mL)
103 | CCC(Cl)(Cl)Cl | 12.9 mM (≈ 1900 µg/mL)
104 | CNC(=O)Oc1cc(C)cc(C(C)C)c1 | 0.439 mM (≈ 91 µg/mL)
105 | CNC(=O)O/N=C/C(C)(C)S(C)=O (centres undefined) | 136 mM (≈ 28000 µg/mL)
106 | CC(C)N(C(=O)SCC(Cl)=CCl)C(C)C | 0.0518 mM (≈ 14 µg/mL)
107 | ClCc1ccccc1 | 4.15 mM (≈ 525 µg/mL)
108 | CC(F)(F)Cl | 13.9 mM (≈ 1400 µg/mL)
109 | C=C(C)C(=O)OC(C)(C)C | 7.03 mM (≈ 1000 µg/mL)
110 | C=C(C)C(=C)C | 3.97 mM (≈ 327 µg/mL)
111 | Oc1ccccc1Cl | 87.9 mM (≈ 11300 µg/mL)
112 | CCC(CO)(CO)COCC(CC)(CO)CO | 104 mM (≈ 26000 µg/mL)
113 | O=NN(c1ccccc1)c1ccccc1 | 0.177 mM (≈ 35 µg/mL)
114 | NNc1ccccc1 | 1170 mM (≈ 127000 µg/mL)

same assay, conditions: 25.0 °C

Row | SMILES | log10 OH rate constant (cm³/molecule/s)
115 | C/C(C=O)=C\C=C\C=O | -9.93
116 | C=C(C)C(=O)OC | -10.6
117 | CC1CCCO1 (centres undefined) | -10.7
118 | FC(F)C(F)(F)OCC(F)(F)F | -13
119 | CC(C)Br | -12.1
120 | CI | -13.1
121 | c1ccc2c(c1)oc1ccccc12 | -11.4
122 | CCCCl | -12
123 | FC(F)(F)C(F)(F)N(C(F)(F)C(F)(F)F)C(F)(F)C(F)(F)F | < -15.2
